For orientation: pKi means the Ki on a negative log10 scale, so that one unit is a factor of ten. As usually defined, the MIC is the lowest concentration that inhibits growth of the organism.

Assay [1] deals with T1, HIV Reverse Transcriptase (Type B, 66 kDa subunit) (Human immunodeficiency virus type 1 group M subtype B, UniProt P04585).
T1 construct: purified HIV Reverse Transcriptase (Type B, 66 kDa subunit)
In words: HIV Reverse Transcriptase inhibition assays (RNA-directed DNA polymerization, PicoGreen fluorescence). As to conditions: Table 1; template (homopolymer or heteropolymer RNA) not stated; read-out: Ki, Inhibition of HIV Reverse Transcriptase by Nucleotide Mimics. The format is biochemical.

In assay [2] the test system is Escherichia coli. As to the kind of experiment: Antimicrobial assay, minimal inhibitory concentration. The format is cell-based. As to conditions: Escherichia coli, read-out: E. coli MIC.

pKi: −log10 of the molar value. Like-named read-outs stand apart in the source and are kept apart here.

For the compound `[BH3-][P+](O)(OCC1OC(n2cc(C)c(=O)[nH]c2=O)CC1N=[N+]=[N-])OP(=O)(O)C(F)(F)P(=O)(O)O` (single isomer, unassigned) [Compound 27-isomer 1, 3′-Azido-3′-deoxythymidine 5′-α-P-borano-β,γ-(difluoromethylene)triphosphate], the pKi in assay [1] was 8.10. Moreover, the MIC was determined as 60 µg/mL in assay [2] (overnight at 37° C., tested 0-200 μg/ml, NA = Not active) and 111 µM in assay [2] (value in brackets beside the μg/ml value).
